Measurements taken from patent publication US20230095836A1, “SUBSTITUTED 5,6-DIPHENYL-3(2H)-PYRIDAZINONES FOR USE AS FUNGICIDES” (FMC Corporation, priority 2020, published 2023).

How the values were obtained:
Type in all cases: in vivo
Zymoseptoria tritici = test: Test A: test solution sprayed on wheat seedlings, inoculated next day with Zymoseptoria tritici (wheat leaf blotch); disease rating (100 = 100% disease control, 0 = no control; dash = not tested)
Method in brief: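 Wheat seedlings sprayed to run-off with test solution, inoculated next day with Z. tritici spores, held 48 h at 24° C in saturated atmosphere, then 17 days at 20° C before rating. Scores are % disease control relative to controls (100 = full control, 0 = none).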

[1] = tested on: Puccinia recondita f. sp. tritici; test: Test B: test solution sprayed on wheat seedlings, inoculated next day with Puccinia recondita f. sp. tritici (wheat leaf rust); disease rating (100 = 100% disease control, 0 = no control; dash = not tested)
Description: The resulting test suspensions were then used in Tests A-F. The test solution was sprayed to the point of run-off on wheat seedlings. […] A rating of 100 indicates 100% disease control and a rating of 0 indicates no disease control (relative to the controls). A dash (—) indicates the compound was not tested.

[2] = tested on: Blumeria graminis f. sp. tritici; test: Test C: test suspension sprayed on wheat seedlings, inoculated next day with Blumeria graminis f. sp. tritici (wheat powdery mildew); visual disease rating (100 = 100% disease control, 0 = no control; dash = not tested)
Method in brief: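 Wheat seedlings were sprayed to run-off with test suspension, then dusted next day with Blumeria graminis f. sp. tritici spores. After 8 days at 20 °C in a growth chamber, disease was rated visually as percent control relative to untreated controls.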

Phakopsora pachyrhizi = test: Test D: test solution sprayed on soybean seedlings, inoculated next day with Phakopsora pachyrhizi (Asian soybean rust); visual disease rating (100 = 100% disease control, 0 = no control; dash = not tested)
Method in brief: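 Compounds predissolved in acetone (3% of final volume), suspended at ppm concentrations in 50/50 acetone/water with 250 ppm PEG400, sprayed to run-off on soybean seedlings. Inoculated next day with spores, 24 h saturated atmosphere at 22 °C, then 8 days growth chamber at 22 °C; visual rating, 100 = full control.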

Botrytis cinerea = test: Test E: test suspension sprayed on tomato seedlings, inoculated next day with Botrytis cinerea (tomato Botrytis); visual disease rating (100 = 100% disease control, 0 = no control; dash = not tested)
Method in brief: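 Tomato seedlings were sprayed to run-off and inoculated next day with Botrytis cinerea spores. They were held 48 h at 20° C in saturated humidity, then 3 days at 24° C. Disease control was rated visually against controls (100 = full, 0 = none).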

Alternaria solani = test: Test F: test suspension sprayed on tomato seedlings, inoculated next day with Alternaria solani (tomato early blight); visual disease rating (100 = 100% disease control, 0 = no control; dash = not tested)
Method in brief: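 Tomato seedlings sprayed to run-off with test suspension, inoculated next day with A. solani spores, held saturated at 27° C. for 48 h, then 20° C. for 3 days. Disease visually rated as % control relative to untreated controls.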

SMILES	Test A disease control rating (Zymoseptoria tritici; 50 ppm) [%]	Test B disease control rating ([1]; 50 ppm) [%]	Test C disease control rating ([2]; 50 ppm) [%]	Test D disease control rating (Phakopsora pachyrhizi; 50 ppm) [%]	Test E disease control rating (Botrytis cinerea; 50 ppm) [%]	Test F disease control rating (Alternaria solani; 50 ppm) [%]	other results
CCc1c(-c2c(F)cccc2F)c(-c2cc(OC)cc(F)c2Br)nn(C)c1=O [Compound 181]	98	100	100	100	94	100	
Cn1nc(-c2ccccc2Cl)c(-c2ccc(F)cc2Cl)c(O)c1=O [Compound 182]	0	0	0	0	0	0	
COc1ccc(Cl)c(-c2nn(C)c(=O)c(Cl)c2-c2ccccc2F)c1 [Compound 183]	100	100	96	94	98	100	
COc1ccc(Cl)c(-c2nn(C)c(=O)c(Cl)c2-c2ccccc2Cl)c1 [Compound 184]	100	100	96	99	96	99	
COc1ccc(Cl)c(-c2nn(C)c(=O)c(Cl)c2-c2ccc(F)cc2F)c1 [Compound 185]	100	100	99	100	96	100	
COc1ccc(Cl)c(-c2nn(C)c(=O)c(Cl)c2-c2ccc(C#N)cc2Cl)c1 [Compound 186]	99	100	97	99	90	100	
Cn1nc(-c2ccccc2)c(-c2c(F)cccc2F)cc1=O [Compound 191]							Test A disease control rating (Zymoseptoria tritici; 250 ppm): 72%; Test B disease control rating ([1]; 250 ppm): 9%; Test C disease control rating ([2]; 250 ppm): 99%; Test D disease control rating (Phakopsora pachyrhizi; 250 ppm): 0%; Test E disease control rating (Botrytis cinerea; 250 ppm): 99%; Test F disease control rating (Alternaria solani; 250 ppm): 0%
COc1ccc(-c2nn(C)c(=O)cc2-c2c(F)cccc2F)c(F)c1 [Compound 192]							Test A disease control rating (Zymoseptoria tritici; 250 ppm): 38%; Test B disease control rating ([1]; 250 ppm): 80%; Test C disease control rating ([2]; 250 ppm): 84%; Test D disease control rating (Phakopsora pachyrhizi; 250 ppm): 91%; Test E disease control rating (Botrytis cinerea; 250 ppm): 93%; Test F disease control rating (Alternaria solani; 250 ppm): 0%
Cn1nc(-c2ccccc2)c(-c2c(F)cccc2F)c(Cl)c1=O [Compound 193]							Test A disease control rating (Zymoseptoria tritici; 250 ppm): 97%; Test B disease control rating ([1]; 250 ppm): 100%; Test C disease control rating ([2]; 250 ppm): 100%; Test D disease control rating (Phakopsora pachyrhizi; 250 ppm): 61%; Test E disease control rating (Botrytis cinerea; 250 ppm): 100%; Test F disease control rating (Alternaria solani; 250 ppm): 99%
COc1cc(OC)c(Cl)c(-c2nn(C)c(=O)c(C)c2-c2c(F)cccc2F)c1 [Compound 194, 6-(2-chloro-3,5-dimethoxyphenyl)-5-(2,6-difluorophenyl)-2,4-dimethyl-3(2H)-pyridazinone]							pest or weed control at 50 ppm (Zymoseptoria tritici; 50 ppm): 100%; pest or weed control at 50 ppm ([1]; 50 ppm): 100%; pest or weed control at 50 ppm ([2]; 50 ppm): 100%; pest or weed control at 50 ppm (Phakopsora pachyrhizi; 50 ppm): 100%; pest or weed control at 50 ppm (Botrytis cinerea; 50 ppm): 100%; pest or weed control at 50 ppm (Alternaria solani; 50 ppm): 99%
CCn1nc(-c2cc(OC)cc(OC)c2Cl)c(-c2ccc(F)cc2Cl)cc1=O [Compound 202]	99	68	72	44	99	0	
COc1cc(-c2nn(C)c(=O)cc2-c2ccc(F)cc2Cl)cc(OC)c1Cl [Compound 203]	0	0	0	0	31	0	
COc1cc(C#N)cc(-c2cc(=O)n(C)nc2-c2cc(C#N)cc(OC)c2)c1 [Compound 204]	2	0	0	39	0	0	
COc1cc(F)c(Cl)c(-c2nn(C)c(=O)cc2-c2c(F)cccc2F)c1 [Compound 205]	100	99	98	71	99	99	
